According to US8969388B1, “Substituted pyrazolone compounds and methods of use” (Calitor Sciences, LLC, priority 2012, dated 2015):

What was measured:
[1] = Pharmacokinetics after intravenous and oral administration in rats; assay type: in vivo
Method: The compounds disclosed herein are assessed in pharmacokinetic studies in mice, rats, dogs or monkeys. The compounds are administered as a water solution, 2% HPMC+1% TWEEN®80 in water solution, 5% DMSO+5% solutol in saline, 4% MC suspension or capsule. For the intravenous administration, the animals are generally given at 1 or 2 mg/kg dose. For the oral (p.o.) dosing, mice and rats are generally given 5 or 10 mg/kg dose, and dogs and monkeys are generally given 10 mg/kg dose. The blood samples (0.3 mL) are drawn at 0.25, 0.5, 1.0, 2.0, 3.0, 4.0, 6.0, 8.0, 12 and 24 h time points or 0.083, 0.25, 0.5, 1.0, 2.0, 4.0, 6.0, 8.0 and 24 h time points and centrifuged at 3,000 or 4000 rpm for 2 to 10 min. The plasma solutions are collected, stored at −20° C. or −70° C. until analyzed by LC/MS/MS as described above.

c-Met (h) = target: T1, c-Met (h) (Homo sapiens, UniProt P08581); assay: c-Met (h) kinase assay (IC50); assay type: biochemical; details: cells marked (IC50) in the Kd table
T1 construct: host or cells: E. coli BL21-derived host (T7 phage) or HEK-293
Method: (§1) The above assay procedure can be used to determine the IC50 for inhibition and/or the inhibition constant, Ki. The IC50 is defined as the concentration of compound required to reduce the enzyme activity by 50% under the condition of the assay. The IC50 value is estimated by preparing a 10 point curve using a ½ log dilution series (for example, a typical curve may be prepared using the following compound concentrations; 100 μM, 30 μM, 10 μM, 3 μM, 1 μM, 0.3 μM, 0.1 μM, 0.03 μM, 0.01 μM and 0 μM).
(§2) (specific activity approx. 500 cpm/pmol, concentration as required).
(§3) The kinase assays described herein can be performed at Millipore UK Ltd, Dundee Technology Park, Dundee DD2 1SW, UK c-Met (h) Assay.

KDR (h) = target: T2, KDR (h) (Homo sapiens, UniProt P35968); assay: KDR (h) (VEGF-R2 (h)) kinase assay (IC50); assay type: biochemical; details: cells marked (IC50) in the Kd table
T2 construct: host or cells: E. coli BL21-derived host (T7 phage) or HEK-293
Method: as §1
KDR (h) (VEGF-R2 (h)) Assay
as §2, §3

[2] = rat, plasma, iv dosing, 2 mg/kg

T2 sequence (P35968 20-1356): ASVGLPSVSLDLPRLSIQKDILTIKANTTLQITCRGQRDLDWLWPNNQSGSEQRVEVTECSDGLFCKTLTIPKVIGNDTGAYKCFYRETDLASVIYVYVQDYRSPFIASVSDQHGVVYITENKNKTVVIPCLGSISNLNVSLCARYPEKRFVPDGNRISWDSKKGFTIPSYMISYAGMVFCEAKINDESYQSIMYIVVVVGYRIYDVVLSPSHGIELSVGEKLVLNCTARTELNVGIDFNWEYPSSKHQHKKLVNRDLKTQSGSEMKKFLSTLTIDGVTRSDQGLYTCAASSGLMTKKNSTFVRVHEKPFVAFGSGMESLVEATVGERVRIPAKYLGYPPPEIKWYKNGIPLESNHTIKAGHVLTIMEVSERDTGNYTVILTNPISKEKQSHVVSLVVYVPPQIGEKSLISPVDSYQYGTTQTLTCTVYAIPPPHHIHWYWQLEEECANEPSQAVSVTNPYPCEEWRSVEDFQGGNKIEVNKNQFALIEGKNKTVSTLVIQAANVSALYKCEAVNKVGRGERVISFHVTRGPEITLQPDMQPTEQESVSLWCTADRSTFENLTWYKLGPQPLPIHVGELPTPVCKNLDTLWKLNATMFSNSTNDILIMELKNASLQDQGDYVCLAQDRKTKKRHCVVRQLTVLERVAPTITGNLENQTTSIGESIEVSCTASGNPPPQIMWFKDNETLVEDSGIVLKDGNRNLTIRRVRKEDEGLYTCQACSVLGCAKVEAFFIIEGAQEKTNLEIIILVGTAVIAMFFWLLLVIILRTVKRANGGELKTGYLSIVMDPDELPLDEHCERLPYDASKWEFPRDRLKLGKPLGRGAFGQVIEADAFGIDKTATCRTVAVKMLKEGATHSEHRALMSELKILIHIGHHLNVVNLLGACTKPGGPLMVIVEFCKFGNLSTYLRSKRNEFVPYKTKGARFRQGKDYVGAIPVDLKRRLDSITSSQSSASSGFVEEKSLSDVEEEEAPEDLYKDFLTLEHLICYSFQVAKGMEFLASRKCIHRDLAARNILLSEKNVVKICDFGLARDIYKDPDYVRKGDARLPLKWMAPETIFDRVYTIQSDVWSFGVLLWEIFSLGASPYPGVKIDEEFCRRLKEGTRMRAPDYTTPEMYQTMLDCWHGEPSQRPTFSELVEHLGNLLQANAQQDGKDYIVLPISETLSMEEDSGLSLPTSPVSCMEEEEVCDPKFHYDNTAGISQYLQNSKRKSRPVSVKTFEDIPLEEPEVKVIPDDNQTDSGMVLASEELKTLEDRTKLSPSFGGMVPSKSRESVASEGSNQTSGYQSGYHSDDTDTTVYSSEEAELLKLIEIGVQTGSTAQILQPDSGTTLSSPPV
T1 sequence (P08581 25-1390): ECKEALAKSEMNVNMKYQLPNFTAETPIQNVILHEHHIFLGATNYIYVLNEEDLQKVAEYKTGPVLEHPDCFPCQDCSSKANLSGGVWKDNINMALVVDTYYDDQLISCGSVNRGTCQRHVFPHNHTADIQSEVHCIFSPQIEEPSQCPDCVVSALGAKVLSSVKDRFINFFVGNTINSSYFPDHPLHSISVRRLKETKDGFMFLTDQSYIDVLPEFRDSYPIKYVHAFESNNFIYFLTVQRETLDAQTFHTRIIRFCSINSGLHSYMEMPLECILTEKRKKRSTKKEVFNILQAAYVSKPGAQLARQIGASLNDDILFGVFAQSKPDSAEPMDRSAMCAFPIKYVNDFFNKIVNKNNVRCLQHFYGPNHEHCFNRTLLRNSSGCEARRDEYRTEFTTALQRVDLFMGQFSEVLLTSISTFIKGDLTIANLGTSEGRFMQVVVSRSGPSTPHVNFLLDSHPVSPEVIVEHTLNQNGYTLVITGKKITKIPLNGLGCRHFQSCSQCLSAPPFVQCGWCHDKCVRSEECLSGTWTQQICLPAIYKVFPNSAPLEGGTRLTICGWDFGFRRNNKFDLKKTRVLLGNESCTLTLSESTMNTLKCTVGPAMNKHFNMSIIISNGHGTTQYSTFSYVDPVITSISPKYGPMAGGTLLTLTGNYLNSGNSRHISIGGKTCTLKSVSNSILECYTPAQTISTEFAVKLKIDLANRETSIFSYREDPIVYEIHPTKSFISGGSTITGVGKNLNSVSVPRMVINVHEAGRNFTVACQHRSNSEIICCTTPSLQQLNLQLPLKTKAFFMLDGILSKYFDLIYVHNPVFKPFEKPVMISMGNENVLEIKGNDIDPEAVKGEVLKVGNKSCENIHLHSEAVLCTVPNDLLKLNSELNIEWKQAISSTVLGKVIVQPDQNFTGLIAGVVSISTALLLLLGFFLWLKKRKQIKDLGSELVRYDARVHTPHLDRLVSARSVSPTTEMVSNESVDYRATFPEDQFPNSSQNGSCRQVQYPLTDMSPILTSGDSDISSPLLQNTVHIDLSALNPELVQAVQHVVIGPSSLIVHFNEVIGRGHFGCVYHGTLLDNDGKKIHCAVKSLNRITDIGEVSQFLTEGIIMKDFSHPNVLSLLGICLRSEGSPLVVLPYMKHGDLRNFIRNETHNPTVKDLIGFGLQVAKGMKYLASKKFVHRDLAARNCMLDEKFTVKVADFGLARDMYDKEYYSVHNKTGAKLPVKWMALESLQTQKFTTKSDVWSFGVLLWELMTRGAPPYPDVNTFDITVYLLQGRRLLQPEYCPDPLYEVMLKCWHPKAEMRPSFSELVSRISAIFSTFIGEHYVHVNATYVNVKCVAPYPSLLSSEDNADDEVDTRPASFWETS

clearance (CL) after iv dosing ([1]; iv dosing, 2 mg/kg): 13.3 mL/min/kg
F ([1]; oral bioavailability, iv dose 2 mg/kg, oral dose not given): 78.1%
AUC(0-t) [1, 2]: 2510 ng·h/mL
half-life [1, 2]: 43.2 min
Vd ([1]; rat, plasma, iv dosing, 2 mg/kg, read-out: Vss): 0.56 L/kg
IC50 (c-Met (h)): 84 nM
IC50 (KDR (h)): > 3000 nM
Structure (SMILES): Cc1c(C(=O)Nc2ccc(Oc3ccnc(N)c3)c(F)c2)c(=O)n(-c2ccccc2)n1C [Ex. 22, N-(4-((2-aminopyridin-4-yl)oxy)-3-fluorophenyl)-1,5-dimethyl-3-oxo-2-phenyl-2,3-dihydro-1H-pyrazole-4-carboxamide]
